In patent US6921811B2, “Bioactive coating composition and methods” (BioSurface Engineering Technologies, Inc., priority 1998, dated 2005):

Legend:
bFGF = target: T1, bFGF (Homo sapiens, UniProt P09038); test: bFGF binding to silyl-heparin coated polystyrene wells, immunoassay
T1 construct: purchased Sigma Chemical Co
Procedure: Wells of 96 well polystyrene microtiter plates, with a well surface area of 0.32 cm^2, were coated with 30 μl of silyl heparin for 15 minutes at 37° C. After rinsing and air-drying, bFGF (Sigma Chemical Co.) in PBS/BSA was added in 150 μL aliquots in doubling dilutions. The plate was incubated at 37° C. for 1 hour and rinsed 5 times in PBS. An aliquot 150 μl of PBS/BSA containing 1:500 rabbit anti-FGF antibodies were added, incubated for 1 hour and rinsed. In some cases an irrelevant rabbit antibody was used at a similar concentration (rabbit anti-TGF-receptor II, Santa Cruz Biotechnology). An aliquot of PBS/BSA containing 1:500 HRPO-conjugated donkey anti-rabbit IgG added, and after incubation and rinsing ABTS-chromogen added. All antibody solutions were filtered through 0.2 micron filters prior to use. The absorbance was monitored at 405 nm. […] When anti-TGF-II (irrelevant antibody directed against the transforming growth factor receptor) was used instead of anti-FGF and at the same anti-dilutions, no bFGF was detected. When TGF-β, at a concentration of 40 ng was used as the growth factor molecule, no activity was detected with anti-bFGF antibodies.

[1] = target: T2, vascular endothelial growth factor (VEGF) (Homo sapiens, UniProt P15692); test: VEGF binding to silyl-heparin coated wells, immunoassay; details: anti-VEGF antibodies; absorbance 405 nm
T2 sequence (P15692 27-191 isoform P15692-4 limits assumed): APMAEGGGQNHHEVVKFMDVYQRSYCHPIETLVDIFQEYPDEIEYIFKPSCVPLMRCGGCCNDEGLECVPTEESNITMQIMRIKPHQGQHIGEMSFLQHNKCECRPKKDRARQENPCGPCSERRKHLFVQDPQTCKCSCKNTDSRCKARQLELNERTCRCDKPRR
Procedure: Wells of 96 well polystyrene microtiter plates were coated with 30 μL of silyl heparin for 15 minutes at 37° C. The wells were rinsed extensively in water and air-dried. The wells were blocked by adding 250 μL of PBS containing 1 % BSA for 30 minutes. After removing the blocking solution, VEGF in PBS/BSA was added in 100 μL and at the appropriate concentration. The plate was incubated at 37° C. for 1 hour and rinsed 5 times in water. An aliquot of PBS/BSA containing rabbit anti-VEGF antibodies (1:125) was added and the plate incubated for one hour. After rinsing in water, an aliquot of PBS/BSA containing horseradish peroxidase-conjugated anti-rabbit IgG (1:250) was added and incubated for one hour. After rinsing, 200 μL of chromogen (2,2′-azinobis 3-ethylbenzothiazoline-6-[…]) from a commercially available kit was added, the color developed, and the reaction stopped by adding 50 μL of aqueous 2% sodium dodecyl sulfate (SDS). The absorbance was monitored at 405 nm.

antithrombin/factor Xa = target: T3, antithrombin/factor Xa (Homo sapiens, UniProt P01008); test: Loading efficiency of silyl-heparin complexes on materials, heparin-specific assays; format: biochemical; details: varied by substrate material (polystyrene, polycarbonate, polyurethane, stainless steel, titanium and others)
T3 construct: purchased Sigma Diagnostics Procedure No. CRS 106
T3 sequence (P01008 33-464): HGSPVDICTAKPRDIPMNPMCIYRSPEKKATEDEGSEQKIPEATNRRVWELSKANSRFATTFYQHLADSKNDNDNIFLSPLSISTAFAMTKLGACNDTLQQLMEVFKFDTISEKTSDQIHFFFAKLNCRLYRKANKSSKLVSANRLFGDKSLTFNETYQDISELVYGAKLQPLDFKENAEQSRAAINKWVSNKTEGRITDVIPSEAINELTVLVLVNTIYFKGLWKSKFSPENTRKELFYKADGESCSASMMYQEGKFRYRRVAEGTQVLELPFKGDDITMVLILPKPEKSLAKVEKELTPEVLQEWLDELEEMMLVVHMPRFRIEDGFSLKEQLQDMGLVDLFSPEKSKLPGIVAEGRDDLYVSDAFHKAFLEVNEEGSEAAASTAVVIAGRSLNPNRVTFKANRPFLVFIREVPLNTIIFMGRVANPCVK
From the text: Using contacting surfaces coated with silyl-heparin as in Example 4, and to which silyl-heparin-fibronectin was attached as in Example 5, the presence of both heparin and fibronectin was detected in analytical assays. Heparin was detected using a commercially-available an enzyme-linked assay kit (Sigma Chemical Co., St. Louis) that measured the heparin-induced inhibition of antithrombin/factor Xa as measured with a factor Xa specific chromogenic substrate. The enzyme-inhibition assay was performed in low-attachment 96 well plates following the directions of the manufacturer.
In related studies, heparin-specific assays and diemethylene blue dye uptake were used to establish that silyl-heparin complexes could be bound to a variety of materials including polystyrene, hydrogel-coated polystyrene, polycarbonate, polyurethane, poly caprolactone, polyvinylchloride, stainless steel and titanium. The loading efficiency of silyl-heparin complexes varied by substrate material, but was generally in the range of 10-40 mlU of heparin per cm^2.

[2] = system: Bovine aorta endothelial cells; test: Growth of endothelial cells across a porous membrane from coated sutures, crystal violet; format: cell-based; details: coated suture separated from cells by 3 micron pore membrane; 4 days
Procedure: Six-well cluster plates were seeded with 5×10^4 bovine aorta endothelial cells. Cell culture insert membranes (25 mm diameter) with 3 micron pores in the bottom were placed in each well. Suture material was coated with silyl-heparin-bFGF or silyl-heparin. 10 cm of suture material, either coated or uncoated, was placed in each well and medium added sufficient to cover the suture (3 mL total). One set of inserts containing an uncoated suture was spiked with 50 ng of bFGF by adding the bFGF directly to the medium and was used as a positive control. The cells were allowed to grow for 4 days, and were then fixed and stained with crystal violet. Thereafter, the stain was eluted in aqueous methanol and 0.4% SDS and monitored at 595 nm. bFGF from the silyl-heparin-bFGF coated suture was able to transit the separating permeable 3 micron membrane and act regionally to stimulate the growth of endothelial cells at the end of 4 days, as shown in FIG. 6.

[3] = system: bovine aorta endothelial (BAE) cells; test: Cell attachment, spreading and growth on coated low-attachment polystyrene wells; format: cell-based; details: 10^4 cells/well, serum-containing medium
From the text: (§1) Several cell types were used, including GS-9L cells (rat gliosarcoma), C3H10T1/2 (murine fibroblasts), Jurkat (human T cell), bovine aorta endothelial (BAE) cells and rat lymphocytes. GS-9L and C3H10T1/2 cells were maintained in log phase growth and detached from cultureware using Versene and collected by centrifugation. Jurkat cells grew as single cell suspensions and were collected by centrifugation. Rat lymphocytes were collected from heparinized blood by density gradient isolation over Ficoll-Hypaque® media. The collected cells were rinsed once by low speed centrifugation and suspended in either serum-free Dulbecco's Modified Eagles Medium (DMEM) containing pyruvate or RPMI 1640 containing 10% fetal bovine serum (FBS) supplemented with pyruvate. Aliquots of 10^4 cells in 100 μL were used in subsequent adhesion studies.
(§2) The cells were examined after plating using an inverted, phase-contrast microscope. At selected time points up to 4 days after initial seeding, the cells were rinsed three times in saline and fixed in buffered 10% formalin or 35% ethanol. In some cases, the cells were stained in situ with a 0.01 % aqueous solution of crystal violet. The amount of attachment was scored visually or quantitated. To establish the relative number of cells bound, crystal violet stained cells were dissolved in a solution of 70% ethanol containing 0.1% sodium dodecyl sulfate and 0.38 M Tris and the absorbance monitored at 610 nm, using the methods of Scragg and Ferreira (Anal Biochem 198:80-5, 1991) and Grando et al. (Skin Pharmacol 6:135-47, 1993).
(§3) The cells of Example 7 were added to untreated polystyrene wells, wells coated with silyl-heparin as in Example 4, with silyl-heparin-fibronectin as in Example 5, and with only fibronectin by incubation as described in Example 5. […] Cells were seeded at a concentration of 10^4 cells/well in serum-containing medium.
(§4) The cells grew to confluency by 4 days. […] No effort was made to grow the cells in a defined- or serum-low medium known to support growth.

[4] = system: GS-9L cells (rat gliosarcoma); test: as above; format: cell-based; details: 10^4 cells/well, serum-containing medium
From the text: as §1, §2, §3, §4

T1 sequence (P09038 143-288, species assumed): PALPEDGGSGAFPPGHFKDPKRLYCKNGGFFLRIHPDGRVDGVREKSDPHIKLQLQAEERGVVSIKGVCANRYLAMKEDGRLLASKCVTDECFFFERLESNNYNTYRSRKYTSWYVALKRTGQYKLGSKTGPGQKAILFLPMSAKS

upper saturation limit of the silyl-heparin complex for bFGF (bFGF; color development linear at high concentrations): had not been reached
binding of bFGF to silyl-heparin complexes on a contacting surface (bFGF; immunoassays): readily bound
binding of both fibrinogen and bFGF to heparin on a silyl-heparin complex (bFGF; immunoassays): without displacement of either
loading efficiency of silyl-heparin complexes (antithrombin/factor Xa): 10-40 mlU of heparin per cm^2
Substance: benzyl-(1,2 dimethyl)disilyl heparin [silyl-heparin]
binding of VEGF to silyl-heparin [1]: VEGF bound to silyl-heparin and the binding was linear
growth (cell number) of endothelial cells [2]: did not result in an increase in cell number
CELL ATTACHMENT [3]: did not attach
CELL ATTACHMENT [4]: did not attach
